In ChEMBL document CHEMBL1201862, “PubChem BioAssay data set” (2004):
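Results reflect a 48-hour exposure of cells in 96-well plates to compound at five concentrations. GI50 = concentration required for 50% inhibition of growth.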 Activity calls are given as the source filed them. Rule as the data show it: active = GI50 up to about 1.1 µM and inactive = higher.

Experiments:
Assay in all cases: NCI tumour cell line growth inhibition, 48 h
UACC-257 = tested on: UACC-257
HCC 2998 = tested on: HCC 2998
RPMI-8226 = tested on: RPMI-8226
SK-MEL-5 = tested on: SK-MEL-5
Malme-3M = tested on: Malme-3M
HOP-62 = tested on: HOP-62
IGROV-1 = tested on: IGROV-1
EKVX = tested on: EKVX
OVCAR-4 = tested on: OVCAR-4
MCF7 = tested on: MCF7
K562 = tested on: K562
ACHN = tested on: ACHN
NCI-H23 = tested on: NCI-H23
NCI-H522 = tested on: NCI-H522
HOP-92 = tested on: HOP-92
M14 = tested on: M14
CAKI-1 = tested on: CAKI-1
OVCAR-5 = tested on: OVCAR-5
OVCAR-8 = tested on: OVCAR-8
UO-31 = tested on: UO-31

Measured: GI50

COCn1c2ccc(OC(C)=O)cc2c2c(=O)oc(N(C)C)nc21
inactive: UACC-257 > 100 µM | HCC 2998 > 100 µM | RPMI-8226 > 100 µM | SK-MEL-5 > 100 µM | Malme-3M > 100 µM | HOP-62 > 100 µM | IGROV-1 > 100 µM | EKVX > 100 µM | OVCAR-4 > 100 µM | MCF7 > 100 µM | K562 > 100 µM | ACHN > 100 µM | NCI-H23 > 100 µM | NCI-H522 > 100 µM | HOP-92 > 100 µM | M14 > 100 µM | CAKI-1 > 100 µM | OVCAR-5 > 100 µM | OVCAR-8 > 100 µM

O=C(O)[C@@H]1CCC(=O)N1C(c1ccc2c(c1)OCO2)c1ccc2c(c1)OCO2
inactive: UACC-257 > 100 µM | HCC 2998 > 100 µM | RPMI-8226 > 100 µM | SK-MEL-5 > 100 µM | Malme-3M > 100 µM | HOP-62 > 100 µM | IGROV-1 > 100 µM | EKVX > 100 µM | OVCAR-4 35.2 µM | UO-31 > 100 µM | MCF7 > 100 µM | K562 > 100 µM | ACHN > 100 µM | NCI-H23 > 100 µM | NCI-H522 > 100 µM | HOP-92 > 100 µM | M14 > 100 µM | CAKI-1 > 100 µM | OVCAR-5 > 100 µM | OVCAR-8 > 100 µM

CN(C)c1ccc2c(c1)oc(=O)c1ccccc12
inactive: UACC-257 14.4 µM | HCC 2998 14.9 µM | RPMI-8226 3.59 µM | SK-MEL-5 10.7 µM | Malme-3M 11.8 µM | HOP-62 29.2 µM | IGROV-1 13.7 µM | EKVX 16.7 µM | OVCAR-4 12.3 µM | MCF7 5.08 µM | K562 4.52 µM | ACHN 18.5 µM | NCI-H23 8.05 µM | NCI-H522 8.36 µM | HOP-92 12.3 µM | M14 13 µM | CAKI-1 11.4 µM | OVCAR-5 15.5 µM | OVCAR-8 11.1 µM
